# From patent US20160326142A1, “PYRAZOLE CARBOXAMIDE COMPOUNDS, COMPOSITIONS AND METHODS OF USE” (Genentech, Inc., priority 2012, published 2016)
# Biological target: T1, ITK (Homo sapiens, UniProt Q08881)
# T1 construct: purchased Invitrogen PV3875
# T1 sequence (Q08881 1-620): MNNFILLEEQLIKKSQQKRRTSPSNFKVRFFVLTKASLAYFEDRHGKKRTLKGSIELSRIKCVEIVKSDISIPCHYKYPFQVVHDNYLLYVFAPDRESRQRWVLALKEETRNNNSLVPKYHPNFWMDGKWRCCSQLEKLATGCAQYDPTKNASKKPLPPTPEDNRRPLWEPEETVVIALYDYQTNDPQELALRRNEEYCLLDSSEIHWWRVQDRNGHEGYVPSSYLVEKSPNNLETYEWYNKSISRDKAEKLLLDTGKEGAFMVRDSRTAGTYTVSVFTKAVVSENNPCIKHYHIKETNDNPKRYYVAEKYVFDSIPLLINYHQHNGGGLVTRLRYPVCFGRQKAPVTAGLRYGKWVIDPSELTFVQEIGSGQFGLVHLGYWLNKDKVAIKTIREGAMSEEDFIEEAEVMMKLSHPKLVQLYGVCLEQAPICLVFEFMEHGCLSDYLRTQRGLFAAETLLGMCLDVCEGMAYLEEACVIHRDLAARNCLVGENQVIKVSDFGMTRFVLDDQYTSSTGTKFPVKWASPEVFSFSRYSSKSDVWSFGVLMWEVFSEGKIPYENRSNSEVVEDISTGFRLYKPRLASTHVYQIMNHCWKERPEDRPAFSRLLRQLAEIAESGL
# Assay: ITK enzyme assay (Caliper or LCMS peptide phosphorylation)
# Type: biochemical
# Conditions: purified ITK (Invitrogen PV3875), 20 μM ATP, Ki by Morrison's quadratic equation
# Protocol: The ability of purified ITK (Invitrogen PV3875) to catalyze peptide phosphorylation is monitored using a Caliper LabChip 3000 microfluidic unit (Caliper assay) or by liquid chromatography-mass spectrometry (LCMS) using a Waters Acquity system (LCMS assay). […] Reactions are quenched by the addition of 2,2′,2″,2′″-(ethane-1,2-diyldinitrilo)tetraacetic acid (50 mM final). Non-phosphorylated substrate and phosphorylated product peptides are separated and quantified using a Caliper LabChip 3000 instrument. […] Reactions are quenched by the addition of trichloroacetic acid (5% v/v final). Non-phosphorylated substrate and phosphorylated product peptides are separated by ultra performance LC and detected by a coupled triple quadrupole MS device applying multiple reaction monitoring (MRM) for quantification. The area of the MRM-extracted mass signal is used to assess the inhibition by test compounds. Equilibrium dissociation constant (Ki) values for ITK inhibitors are calculated from plots of activity vs. inhibitor concentration using Morrison's quadratic equation that accounts for the potential of tight binding, and by also applying the conversion factor that accounts for competitive inhibition and the concentration of ATP used in the assay relative to its apparent Michaelis constant (Km,app).
row,Structure (SMILES),Ki [nM]
1,"Cn1cc(C(c2ccccc2)n2cc(NC(=O)c3n[nH]c4c3CC3CC3C4)cn2)cn1 (single isomer, unassigned) [Example 27b, N-(1-((1-methyl-1H-pyrazol-4-yl)(phenyl)methyl)-1H-pyrazol-4-yl)-1,4,4a,5,5a,6-hexahydro cyclopropa[f]indazole-3-carboxamide]",11
2,"Cn1cc(C(c2ccccc2)n2cc(NC(=O)c3n[nH]c4c3CC3CC3C4)cn2)cn1 (single isomer, unassigned) [Example 27c, N-(1-((1-methyl-1H-pyrazol-4-yl)(phenyl)methyl)-1H-pyrazol-4-yl)-1,4,4a,5,5a,6-hexahydro cyclopropa[f]indazole-3-carboxamide]",45
3,"Cn1cc(C(c2ccccc2)n2cc(NC(=O)c3n[nH]c4c3CC3CC3C4)cn2)cn1 (single isomer, unassigned) [Example 27d, N-(1-((1-methyl-1H-pyrazol-4-yl)(phenyl)methyl)-1H-pyrazol-4-yl)-1,4,4a,5,5a,6-hexahydro cyclopropa[f]indazole-3-carboxamide]",96
4,"CN(C)CCC(c1ccccc1)n1cc(NC(=O)c2n[nH]c3c2CC2CC2C3)cn1 (single isomer, unassigned) [Example 28a, N-(1-(3-(dimethylamino)-1-phenylpropyl)-1H-pyrazol-4-yl)-1,4,4a,5,5a,6-hexahydrocyclopropa[f]indazole-3-carboxamide]",16
5,"CN(C)CCC(c1ccccc1)n1cc(NC(=O)c2n[nH]c3c2CC2CC2C3)cn1 (single isomer, unassigned) [Example 28b, N-(1-(3-(dimethylamino)-1-phenylpropyl)-1H-pyrazol-4-yl)-1,4,4a,5,5a,6-hexahydrocyclopropa[f]indazole-3-carboxamide]",6
6,"CN(C)CCC(c1ccccc1)n1cc(NC(=O)c2n[nH]c3c2CC2CC2C3)cn1 (single isomer, unassigned) [Example 28c, N-(1-(3-(dimethylamino)-1-phenylpropyl)-1H-pyrazol-4-yl)-1,4,4a,5,5a,6-hexahydrocyclopropa[f]indazole-3-carboxamide]",155
7,"CN(C)CCC(c1ccccc1)n1cc(NC(=O)c2n[nH]c3c2CC2CC2C3)cn1 (single isomer, unassigned) [Example 28d, N-(1-(3-(dimethylamino)-1-phenylpropyl)-1H-pyrazol-4-yl)-1,4,4a,5,5a,6-hexahydrocyclopropa[f]indazole-3-carboxamide]",98
8,"CN(C)CCC(c1cccc(C(F)(F)F)c1)n1cc(NC(=O)c2n[nH]c3c2CCC(C)(C)C3)cn1 (single isomer, unassigned) [Example 30a, N-(1-(3-(dimethylamino)-1-(3-(trifluoromethyl)phenyl)propyl)-1H-pyrazol-4-yl)-6,6-dimethyl-4,5,6,7-tetrahydro-1H-indazole-3-carboxamide]",2
9,"CN(C)CCC(c1cccc(C(F)(F)F)c1)n1cc(NC(=O)c2n[nH]c3c2CCC(C)(C)C3)cn1 (single isomer, unassigned) [Example 30b, N-(1-(3-(dimethylamino)-1-(3-(trifluoromethyl)phenyl)propyl)-1H-pyrazol-4-yl)-6,6-dimethyl-4,5,6,7-tetrahydro-1H-indazole-3-carboxamide]",4
10,"CC1(C)CCc2c(C(=O)Nc3cnn(C(c4ccccc4)C4CNC4)c3)n[nH]c2C1 (single isomer, unassigned) [Example 34a, N-(1-(azetidin-3-yl(phenyl)methyl)-1H-pyrazol-4-yl)-6,6-dimethyl-4,5,6,7-tetrahydro-1H-indazole-3-carboxamide]",3
11,"CC1(C)CCc2c(C(=O)Nc3cnn(C(c4ccccc4)C4CNC4)c3)n[nH]c2C1 (single isomer, unassigned) [Example 34b, N-(1-(azetidin-3-yl(phenyl)methyl)-1H-pyrazol-4-yl)-6,6-dimethyl-4,5,6,7-tetrahydro-1H-indazole-3-carboxamide]",0.7
